Reference: BindingDB's records for PubMed 20126400 (University of Oklahoma, 2010)
pIC50, pKi: −log10 of the molar value. Where “and” joins values, the source holds several entries; their conditions need not be identical. Equal values may be shown once.

Assays:
[1] = biological target: Alpha-2B adrenergic receptor (Homo sapiens, UniProt P18089); test: Ray2010 Assay 74
Text: (§1) Table S2 shows raw Ki data for the current study combined with data collected from the literature for the ten additional compounds.

[2] = biological target: Neuronal acetylcholine receptor subunit alpha-2/beta-4 (Homo sapiens, UniProt Q15822+P30926); test: Ray2010 Assay 74
Text: as §1

[3] = biological target: Neuronal acetylcholine receptor subunit alpha-4/beta-2 (Homo sapiens, UniProt P43681+P17787); test: Ray2010 Assay 74
Text: as §1

[4] = biological target: Neuronal acetylcholine receptor subunit alpha-4/beta-4 (Homo sapiens, UniProt P43681+P30926); test: Ray2010 Assay 74
Text: as §1

[5] = biological target: T1, 5-hydroxytryptamine receptor 1A (Homo sapiens, UniProt P08908); test: Ray2010 Assay 28
T1 sequence (P08908 whole entry): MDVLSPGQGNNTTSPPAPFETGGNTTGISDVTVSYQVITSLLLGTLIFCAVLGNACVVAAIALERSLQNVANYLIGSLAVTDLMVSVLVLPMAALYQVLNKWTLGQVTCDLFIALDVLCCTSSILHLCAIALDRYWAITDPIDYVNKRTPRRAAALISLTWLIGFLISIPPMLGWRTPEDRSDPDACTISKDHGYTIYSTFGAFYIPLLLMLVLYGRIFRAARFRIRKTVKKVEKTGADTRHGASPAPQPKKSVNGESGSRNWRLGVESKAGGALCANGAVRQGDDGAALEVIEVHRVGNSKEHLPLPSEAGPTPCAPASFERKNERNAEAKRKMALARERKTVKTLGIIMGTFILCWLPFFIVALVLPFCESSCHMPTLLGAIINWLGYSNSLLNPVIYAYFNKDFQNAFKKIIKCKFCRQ
Text: 8-oh-dpat cloned PDSP web; .

[6] = biological target: 5-hydroxytryptamine receptor 1D (UniProt F1MMU1); test: Ray2010 Assay 30
Text: 5-HT caudate .

D(3) dopamine receptor = D(3) dopamine receptor (Bos taurus, UniProt F1N454); test: Ray2010 Assay 33
Text: 7-OH-DPAT caudate .

D(4) dopamine receptor = biological target: T2, D(4) dopamine receptor (Homo sapiens, UniProt P21917); test: Ray2010 Assay 34
T2 sequence (P21917 whole entry): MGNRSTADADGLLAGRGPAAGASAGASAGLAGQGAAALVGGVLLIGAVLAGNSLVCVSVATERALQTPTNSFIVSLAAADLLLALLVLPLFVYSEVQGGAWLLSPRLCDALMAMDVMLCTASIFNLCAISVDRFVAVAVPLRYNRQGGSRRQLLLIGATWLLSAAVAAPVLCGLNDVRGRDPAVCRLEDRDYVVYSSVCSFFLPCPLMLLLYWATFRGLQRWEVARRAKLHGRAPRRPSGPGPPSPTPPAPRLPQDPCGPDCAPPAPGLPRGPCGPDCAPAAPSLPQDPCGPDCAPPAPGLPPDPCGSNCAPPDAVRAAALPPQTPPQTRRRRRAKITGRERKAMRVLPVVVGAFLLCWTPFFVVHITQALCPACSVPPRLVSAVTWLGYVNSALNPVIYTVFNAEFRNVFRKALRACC
Text: spiperone cloned .

[7] = biological target: Beta-1 adrenergic receptor (Rattus norvegicus, UniProt P18090); test: Ray2010 Assay 35
Text: dihydro-alprenalol HCL cortex .

[8] = biological target: Sigma non-opioid intracellular receptor 1 (Cavia porcellus, UniProt Q60492); test: Ray2010 Assay 39
Text: (+)-pentazocine brain Mach et al.1995.

[9] = biological target: Muscarinic acetylcholine receptor M1 (Rattus norvegicus, UniProt P08482); test: Ray2010 Assay 47
Text: pirenzepine forebrain .

Mu-type opioid receptor = Mu-type opioid receptor (Bos taurus, UniProt P79350); test: Ray2010 Assay 55
Text: DAGO cortex .

[10] = biological target: T3, Glutamate receptor ionotropic, NMDA 2D (Rattus norvegicus, UniProt Q62645); test: Ray2010 Assay 62
Text: MK-801 hippocampus .

[11] = biological target: T3, Glutamate receptor ionotropic, NMDA 2D; test: Ray2010 Assay 64
Text: MK-801 Thalamus + hypothalamus .

[12] = biological target: T3, Glutamate receptor ionotropic, NMDA 2D; test: Ray2010 Assay 65
Text: MK-801 spinal cord .

[13] = biological target: T3, Glutamate receptor ionotropic, NMDA 2D; test: Ray2010 Assay 66
Text: MK-801 midbrain .

[14] = biological target: T3, Glutamate receptor ionotropic, NMDA 2D; test: Ray2010 Assay 67
Text: MK-801 cerebellum .

T3 sequence (Q62645 whole entry): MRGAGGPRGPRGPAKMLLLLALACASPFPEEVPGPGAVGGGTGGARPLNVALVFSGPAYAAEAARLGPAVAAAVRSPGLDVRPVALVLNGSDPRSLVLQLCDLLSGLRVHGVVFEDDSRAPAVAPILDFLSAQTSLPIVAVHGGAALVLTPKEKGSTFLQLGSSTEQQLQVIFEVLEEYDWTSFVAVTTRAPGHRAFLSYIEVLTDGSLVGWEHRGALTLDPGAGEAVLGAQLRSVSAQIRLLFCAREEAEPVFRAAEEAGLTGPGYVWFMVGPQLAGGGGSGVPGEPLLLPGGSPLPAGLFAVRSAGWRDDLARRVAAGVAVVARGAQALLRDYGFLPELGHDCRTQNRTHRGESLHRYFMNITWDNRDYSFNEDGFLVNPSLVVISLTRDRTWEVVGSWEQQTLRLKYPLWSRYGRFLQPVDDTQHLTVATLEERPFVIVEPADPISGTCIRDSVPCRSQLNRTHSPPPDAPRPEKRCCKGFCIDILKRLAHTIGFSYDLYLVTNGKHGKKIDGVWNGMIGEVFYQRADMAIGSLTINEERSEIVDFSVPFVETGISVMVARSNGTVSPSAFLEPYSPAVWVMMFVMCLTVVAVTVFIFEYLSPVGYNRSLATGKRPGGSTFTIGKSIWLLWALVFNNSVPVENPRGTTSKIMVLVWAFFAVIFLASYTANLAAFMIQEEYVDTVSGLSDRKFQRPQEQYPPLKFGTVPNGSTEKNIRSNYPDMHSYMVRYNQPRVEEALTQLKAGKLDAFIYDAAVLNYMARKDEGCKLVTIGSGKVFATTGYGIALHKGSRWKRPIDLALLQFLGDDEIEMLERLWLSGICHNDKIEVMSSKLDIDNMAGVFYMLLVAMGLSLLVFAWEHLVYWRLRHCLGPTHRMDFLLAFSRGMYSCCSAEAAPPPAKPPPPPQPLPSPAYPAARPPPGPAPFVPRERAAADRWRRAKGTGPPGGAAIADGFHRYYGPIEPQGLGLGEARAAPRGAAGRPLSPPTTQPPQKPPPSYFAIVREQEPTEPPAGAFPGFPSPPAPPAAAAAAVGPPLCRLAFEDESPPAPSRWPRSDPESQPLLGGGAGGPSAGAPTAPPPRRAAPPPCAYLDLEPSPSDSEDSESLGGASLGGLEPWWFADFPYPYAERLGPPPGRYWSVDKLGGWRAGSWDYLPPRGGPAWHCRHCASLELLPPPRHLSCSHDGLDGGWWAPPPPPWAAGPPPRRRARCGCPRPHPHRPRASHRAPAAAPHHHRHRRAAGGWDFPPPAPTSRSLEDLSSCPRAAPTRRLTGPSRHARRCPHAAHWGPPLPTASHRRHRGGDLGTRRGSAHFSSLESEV
Sequence of Mu-type opioid receptor (P79350 whole entry): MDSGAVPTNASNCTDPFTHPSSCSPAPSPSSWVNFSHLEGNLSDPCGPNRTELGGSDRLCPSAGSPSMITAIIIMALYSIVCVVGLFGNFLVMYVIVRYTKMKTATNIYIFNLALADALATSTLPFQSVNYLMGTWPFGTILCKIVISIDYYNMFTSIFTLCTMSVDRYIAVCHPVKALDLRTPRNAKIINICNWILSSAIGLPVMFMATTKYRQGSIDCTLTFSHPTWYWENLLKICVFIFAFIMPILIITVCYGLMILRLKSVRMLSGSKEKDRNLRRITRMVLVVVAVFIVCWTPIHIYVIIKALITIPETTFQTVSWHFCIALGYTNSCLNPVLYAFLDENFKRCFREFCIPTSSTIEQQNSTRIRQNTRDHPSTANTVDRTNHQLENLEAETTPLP
Sequence of Sigma non-opioid intracellular receptor 1 (Q60492 whole entry): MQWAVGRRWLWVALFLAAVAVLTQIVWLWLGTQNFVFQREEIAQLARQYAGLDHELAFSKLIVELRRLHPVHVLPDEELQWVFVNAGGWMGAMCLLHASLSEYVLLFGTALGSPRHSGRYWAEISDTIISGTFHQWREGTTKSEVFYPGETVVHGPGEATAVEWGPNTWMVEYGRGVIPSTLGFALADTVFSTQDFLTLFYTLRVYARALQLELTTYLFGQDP
Sequence of D(3) dopamine receptor (F1N454 whole entry): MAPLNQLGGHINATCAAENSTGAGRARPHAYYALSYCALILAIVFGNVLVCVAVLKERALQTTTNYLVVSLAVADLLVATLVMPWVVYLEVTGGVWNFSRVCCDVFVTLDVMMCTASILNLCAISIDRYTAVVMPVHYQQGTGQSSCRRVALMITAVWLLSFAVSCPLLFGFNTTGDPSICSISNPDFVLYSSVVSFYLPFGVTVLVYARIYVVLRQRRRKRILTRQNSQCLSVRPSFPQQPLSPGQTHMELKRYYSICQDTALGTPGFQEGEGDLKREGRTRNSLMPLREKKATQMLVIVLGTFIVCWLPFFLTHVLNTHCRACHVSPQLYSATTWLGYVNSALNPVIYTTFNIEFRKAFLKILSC
Sequence of Alpha-2B adrenergic receptor (P18089 whole entry): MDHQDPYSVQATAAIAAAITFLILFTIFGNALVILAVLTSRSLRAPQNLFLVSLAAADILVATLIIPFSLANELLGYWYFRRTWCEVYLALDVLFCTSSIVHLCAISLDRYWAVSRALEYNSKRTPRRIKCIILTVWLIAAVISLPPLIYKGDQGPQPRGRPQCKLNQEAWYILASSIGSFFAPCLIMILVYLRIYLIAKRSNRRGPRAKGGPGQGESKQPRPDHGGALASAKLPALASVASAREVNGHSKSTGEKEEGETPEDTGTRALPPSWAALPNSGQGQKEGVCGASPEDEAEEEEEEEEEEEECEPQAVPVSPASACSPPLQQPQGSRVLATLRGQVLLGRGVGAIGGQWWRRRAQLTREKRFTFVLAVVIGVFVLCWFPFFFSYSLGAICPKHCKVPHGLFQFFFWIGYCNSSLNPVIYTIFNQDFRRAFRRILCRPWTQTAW
Sequence of Neuronal acetylcholine receptor subunit alpha-2/beta-4 (Q15822 whole entry): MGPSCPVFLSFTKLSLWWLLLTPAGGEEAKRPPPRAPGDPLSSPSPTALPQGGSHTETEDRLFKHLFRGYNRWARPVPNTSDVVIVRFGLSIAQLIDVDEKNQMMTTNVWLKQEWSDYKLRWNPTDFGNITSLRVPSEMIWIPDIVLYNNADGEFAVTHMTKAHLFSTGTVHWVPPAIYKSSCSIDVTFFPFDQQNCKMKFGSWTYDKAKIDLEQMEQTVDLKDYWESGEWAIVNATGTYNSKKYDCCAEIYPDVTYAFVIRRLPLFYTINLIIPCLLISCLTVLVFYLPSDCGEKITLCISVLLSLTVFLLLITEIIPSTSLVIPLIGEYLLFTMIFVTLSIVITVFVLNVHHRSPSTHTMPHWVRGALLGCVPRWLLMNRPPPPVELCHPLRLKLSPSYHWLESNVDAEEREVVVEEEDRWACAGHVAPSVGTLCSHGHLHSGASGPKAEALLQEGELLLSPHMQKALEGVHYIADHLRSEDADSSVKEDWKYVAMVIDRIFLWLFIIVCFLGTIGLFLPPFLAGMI
Sequence of Neuronal acetylcholine receptor subunit alpha-2/beta-4 (P30926 whole entry): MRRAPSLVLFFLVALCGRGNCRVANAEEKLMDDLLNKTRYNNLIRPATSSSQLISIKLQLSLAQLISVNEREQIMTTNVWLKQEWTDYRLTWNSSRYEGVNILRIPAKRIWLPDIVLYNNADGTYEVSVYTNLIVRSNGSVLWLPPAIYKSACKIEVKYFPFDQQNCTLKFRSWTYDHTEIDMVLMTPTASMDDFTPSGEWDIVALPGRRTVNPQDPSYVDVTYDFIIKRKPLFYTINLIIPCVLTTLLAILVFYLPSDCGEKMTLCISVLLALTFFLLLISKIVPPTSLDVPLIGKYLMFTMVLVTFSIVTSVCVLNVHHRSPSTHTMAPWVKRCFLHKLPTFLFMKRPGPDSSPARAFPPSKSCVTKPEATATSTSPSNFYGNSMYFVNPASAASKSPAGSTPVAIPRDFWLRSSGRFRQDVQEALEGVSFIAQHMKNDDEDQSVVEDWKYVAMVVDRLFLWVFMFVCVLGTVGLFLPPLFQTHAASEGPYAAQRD
Sequence of 5-hydroxytryptamine receptor 1D (F1MMU1 whole entry): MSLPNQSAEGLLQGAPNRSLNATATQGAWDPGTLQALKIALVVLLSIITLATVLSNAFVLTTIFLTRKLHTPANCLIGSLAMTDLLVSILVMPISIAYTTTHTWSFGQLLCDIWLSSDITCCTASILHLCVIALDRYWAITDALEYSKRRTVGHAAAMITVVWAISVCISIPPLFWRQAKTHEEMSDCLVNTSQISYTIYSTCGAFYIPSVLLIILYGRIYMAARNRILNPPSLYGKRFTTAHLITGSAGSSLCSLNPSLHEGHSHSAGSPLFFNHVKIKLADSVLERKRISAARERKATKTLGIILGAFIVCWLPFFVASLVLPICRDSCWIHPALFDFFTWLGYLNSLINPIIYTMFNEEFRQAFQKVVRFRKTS
Sequence of Beta-1 adrenergic receptor (P18090 whole entry): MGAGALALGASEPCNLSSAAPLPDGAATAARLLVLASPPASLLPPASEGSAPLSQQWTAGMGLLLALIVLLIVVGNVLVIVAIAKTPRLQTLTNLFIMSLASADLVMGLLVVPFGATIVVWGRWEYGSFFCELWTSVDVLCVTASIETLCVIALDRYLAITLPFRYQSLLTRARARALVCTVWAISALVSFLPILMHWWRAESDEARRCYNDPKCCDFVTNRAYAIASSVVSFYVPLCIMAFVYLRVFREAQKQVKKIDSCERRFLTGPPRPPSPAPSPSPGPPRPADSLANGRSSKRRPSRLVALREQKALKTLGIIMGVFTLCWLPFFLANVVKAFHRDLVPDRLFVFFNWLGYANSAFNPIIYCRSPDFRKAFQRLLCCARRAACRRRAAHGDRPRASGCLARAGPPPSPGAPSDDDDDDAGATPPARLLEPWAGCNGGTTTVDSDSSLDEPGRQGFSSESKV

Molecule | pKi [1] | pKi [2] | pKi [3] | pKi [4] | pKi [5] | pKi [6] | pKi (D(3) dopamine receptor) | pIC50 (D(4) dopamine receptor) | pKi [7] | pKi [8] | pIC50 [9] | pKi (Mu-type opioid receptor) | pKi [10] | pKi [11] | pKi [12] | pKi [13] | pKi [14]
CAS_82830-44-2::(2R)-1-(4-iodo-2,5-dimethoxyphenyl)propan-2-amine::DOI,(-)::US20250270173, Compound DOI | 6.47 | < 5.00 | < 5.00 | < 5.00 | – | – | – | – | – | – | – | – | – | – | – | – | –
CC[C@H]1C[C@@H]2C[C@H]3c4[nH]c5ccc(OC)cc5c4CCN(C2)[C@@H]13 | – | – | – | – | < 5.00 | < 4.00 | 4.15 | < 4.00 | < 4.00 | 5.03 | 5.12 | 4.96 and 5.70 | 5.92 | 5.70 | 5.65 | 5.61 | 5.48
